Literature values, collected in US20250375548A1, “STERILIZATION PROCESS, SYSTEM AND PRODUCT INCLUDING MOLECULAR MOBILITY ENHANCER” (TEKDRY INTERNATIONAL, INC., priority 2019, published 2025).

What was measured:
[1] = @ 25° C.
[2] = 1,800 ppm at 44° C.

Compound	vapor pressure [1]	D-value [2]
CCOCC [diethyl ether]	520 mmHg	–
CC(=O)OO [peracetic acid, reference compound]	14.5 mmHg	–
O=COO [performic acid]	78 mmHg	lower than five
